In ChEMBL document CHEMBL5029156 (J Med Chem, 2021) one finds Ki data, which are given here for 2 compounds.

Each structure is given as a SMILES string.

Test [1] concerns the target T1, Aldehyde oxidase (Homo sapiens, UniProt Q06278).
T1 sequence (Q06278 whole entry): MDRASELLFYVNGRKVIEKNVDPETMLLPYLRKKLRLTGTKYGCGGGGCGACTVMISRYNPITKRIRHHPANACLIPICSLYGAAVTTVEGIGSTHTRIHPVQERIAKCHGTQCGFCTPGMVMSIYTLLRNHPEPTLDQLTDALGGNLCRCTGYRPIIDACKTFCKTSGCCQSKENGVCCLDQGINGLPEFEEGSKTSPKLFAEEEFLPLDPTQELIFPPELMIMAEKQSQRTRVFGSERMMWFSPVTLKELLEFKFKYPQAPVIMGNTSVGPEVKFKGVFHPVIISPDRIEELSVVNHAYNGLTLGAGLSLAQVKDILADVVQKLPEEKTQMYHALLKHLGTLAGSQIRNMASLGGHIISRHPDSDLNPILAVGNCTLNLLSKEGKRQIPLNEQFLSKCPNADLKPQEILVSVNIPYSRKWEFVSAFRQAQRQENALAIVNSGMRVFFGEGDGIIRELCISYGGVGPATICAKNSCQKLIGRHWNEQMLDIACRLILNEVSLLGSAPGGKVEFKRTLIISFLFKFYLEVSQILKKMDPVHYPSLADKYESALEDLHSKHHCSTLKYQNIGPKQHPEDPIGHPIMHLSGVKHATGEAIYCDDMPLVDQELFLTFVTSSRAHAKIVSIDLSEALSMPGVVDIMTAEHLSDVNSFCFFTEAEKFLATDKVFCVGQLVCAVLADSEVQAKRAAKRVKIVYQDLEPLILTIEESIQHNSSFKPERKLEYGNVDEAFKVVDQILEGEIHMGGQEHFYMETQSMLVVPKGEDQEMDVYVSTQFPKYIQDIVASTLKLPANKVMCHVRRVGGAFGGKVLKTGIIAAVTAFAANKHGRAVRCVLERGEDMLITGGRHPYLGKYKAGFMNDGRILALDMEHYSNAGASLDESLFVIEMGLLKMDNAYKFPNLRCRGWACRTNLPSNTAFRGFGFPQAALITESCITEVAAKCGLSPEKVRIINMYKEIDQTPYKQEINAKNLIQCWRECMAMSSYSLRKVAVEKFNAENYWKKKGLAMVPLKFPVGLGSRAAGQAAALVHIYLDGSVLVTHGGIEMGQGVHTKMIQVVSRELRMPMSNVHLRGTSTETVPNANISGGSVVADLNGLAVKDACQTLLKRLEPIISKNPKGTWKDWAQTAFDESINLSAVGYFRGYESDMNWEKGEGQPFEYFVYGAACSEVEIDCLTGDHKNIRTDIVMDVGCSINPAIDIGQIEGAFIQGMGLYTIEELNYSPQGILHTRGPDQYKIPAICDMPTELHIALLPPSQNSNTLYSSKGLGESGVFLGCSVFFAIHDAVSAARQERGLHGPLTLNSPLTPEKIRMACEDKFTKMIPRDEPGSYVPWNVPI
Nature of the test: Mixed type inhibition of human AOX assessed as inhibitor dissociation constant by measuring changes in slope of the double reciprocal plot using phenanthridine as substrate by Michaelis-Menten analysis. The conditions noted are these: read-out: Kis.

The target of test [2] is T1, Aldehyde oxidase. Nature of the test: Mixed type inhibition of human AOX assessed as inhibitor dissociation constant by measuring changes in intercept of the double reciprocal plot using phenanthridine as substrate by Michaelis-Menten analysis. The following applies: read-out: Kii.
For test [3], the target named is T1, Aldehyde oxidase. Nature of the test: Noncompetitive type inhibition of human AOX assessed as inhibitor dissociation constant by measuring changes in intercept of the double reciprocal plot using phthalazine as substrate by Michaelis-Menten analysis. The following applies: read-out: Kii.
Test [4] deals with T1, Aldehyde oxidase. Nature of the test: Noncompetitive type inhibition of human AOX assessed as inhibitor dissociation constant by measuring slope of the double reciprocal plot using phthalazine as substrate by Michaelis-Menten analysis. The following applies: read-out: Kis.

In the case of `N=C(N)c1ccccc1` [BENZAMIDINE], the Ki on Aldehyde oxidase [1] came out at 1240 µM; on Aldehyde oxidase [2], 1620 µM.
Consider `CSc1ccc2c(c1)N(CCC1CCCCN1C)c1ccccc1S2` (centres undefined) [THIORIDAZINE], for which the Ki at Aldehyde oxidase [3] and on Aldehyde oxidase [4] was 1.3 µM each time.
